In brackets after ≈: the same amount, converted by molar mass.
Key:
[1] = test system: Pseudomonas aeruginosa PAE2; test: VITEK drug sensitivity test; assay type: cell-based; settings: unit assumed
[2] = test system: alveolar lavage fluid sample 0203, K. pneumoniae; test: BMD susceptibility test of patient alveolar lavage fluid; assay type: cell-based, Klebsiella pneumoniae; settings: unit assumed
Excerpt: (§1) The results of antimicrobial susceptibility test of alveolar lavage fluid of seven patients using FDAA and BMD methods are shown in the following table. The drug-resistant bacteria are shown in bold.

[3] = test system: alveolar lavage fluid sample 0226, K. pneumoniae; test: as above; assay type: cell-based, Klebsiella pneumoniae; settings: unit assumed
Excerpt: as §1

Ec ATCC 25922 = test: FaAST (FDAA metabolic labeling); assay type: cell-based, Escherichia coli; settings: unit assumed
How it was run: (§2)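 Bacteria diluted to OD600=0.05 in CAMHB were exposed to an antibiotic concentration series with Cy5-DAA probe […] for 2 h in the dark. Per-sample fluorescence was read by flow cytometry after PBS dilution. MIC was taken from the antibiotic concentration–fluorescence curve.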

E. coli Ec11 = test: FaAST (FDAA metabolic labeling); assay type: cell-based, Escherichia coli; settings: unit assumed
How it was run: as §2

[4] = test system: Pseudomonas aeruginosa PAE853; test: VITEK drug sensitivity test; assay type: cell-based; settings: unit assumed
E. faecium Ef26 = test: FaAST (FDAA metabolic labeling method); assay type: cell-based, Enterococcus faecium; settings: unit assumed
How it was run: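 Bacteria at OD600=0.05 in CAMHB exposed to antibiotic concentration gradients with Cy5-DAA probe […], 2 h in the dark. Fluorescence read by flow cytometry after PBS dilution; MIC taken from the curve of fluorescence intensity versus antibiotic concentration.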

E.coli 1113 = test: Vitek 2 drug sensitivity test; assay type: cell-based, Escherichia coli; on Sensibility: key: S: Drug sensitive; R: Drug resistance
P. aeruginosa Pa2 = test: FaAST (FDAA metabolic labeling); assay type: cell-based, Pseudomonas aeruginosa; settings: unit assumed
Method: (§3) The specific experimental steps are as follows: • 1. Take the colony to be tested that has been cultured overnight on the plate and fully mix it in normal saline to make a uniform bacterial solution. Dilute it into CAMHB medium to make a bacterial solution with OD600=0.05. • 2. Add 45 μl antibiotic solutions to be tested of different concentrations to 96-well plates (see Table 3 for antibiotic concentration gradient settings). • 3. Add 50 μl of bacterial solution prepared in Step 1 to the 96-well plate and mix well. • 4.5 μl of 10 mM Cy5-DAA probe was added to each well (final concentration was 0.15 mM, and its structure was shown in FIG. 1). After mixing, the probe was incubated for 2 hours in the dark. • 5. After dilution with 200 μl PBS solution, the fluorescence intensity of each sample was detected by flow cytometry. The flow detection results are shown in the attached FIG. 4-5, showing the curve of antibiotic concentration gradient and fluorescence intensity, and the MIC (minimum inhibitory concentration) is obtained by referring to this curve.
(§4) Antibiotic resistant strains are shown in bold in the table below.

Pa ATCC 27853 = test: FaAST (FDAA metabolic labeling); assay type: cell-based, Pseudomonas aeruginosa; settings: unit assumed
Method: as §3, §4

P. aeruginosa Pa3 = test: FaAST (FDAA metabolic labeling); assay type: cell-based, Pseudomonas aeruginosa; settings: unit assumed
Method: as §3, §4

[5] = test system: Enterococcus faecium EFM26; test: FaAST with DAA-Tetra probe; assay type: cell-based; settings: unit assumed
[6] = test system: Pseudomonas aeruginosa PAE2; test: FaAST with DAA-Tetra probe; assay type: cell-based; settings: unit assumed
[7] = test system: Acinetobacter baumannii ABA19; test: FaAST with DAA-Tetra probe; assay type: cell-based; settings: unit assumed
[8] = test system: alveolar lavage fluid sample 0203, K. pneumoniae; test: FaAST (FDAA) susceptibility test of patient alveolar lavage fluid; assay type: cell-based, Klebsiella pneumoniae; settings: unit assumed
Method: (§5) With reference to the flow chart of the rapid detection method of antimicrobial susceptibility test based on FDAA metabolic markers shown in FIG. 3, FDAA is used for the detection of antimicrobial susceptibility test of alveolar lavage fluid. The specific experimental steps are as follows: • 1. Mix bronchoalveolar lavage fluid (BALF, 10 ml) of patients with hospital acquired pneumonia with cation regulated broth medium (CAMHB, 10 ml) of twice the concentration to prepare the bacterial fluid to be tested. • 2. Add 45 μl antibiotic solutions of different concentrations to the 96-well plate separately (see Table 1 for antibiotic concentration gradient settings). • 3. Add 50 μl of the bacterial solution prepared in step 1 to the 96-well plate and mix well. • 4. Add 5 μl of 10 mM Cy5-DAA probe (final concentration 0.15 mM, see FIG. 1 for its structure) into each well, mix well, and then cultivate in dark for 2 hours. • 5. Add 200 μl PBS solution for dilution, and then use flow cytometry to detect the fluorescence intensity of each sample.
as §1

[9] = test system: alveolar lavage fluid sample 0226, K. pneumoniae; test: as above; assay type: cell-based, Klebsiella pneumoniae; settings: unit assumed
Method: as §5, §1

[10] = test system: Pseudomonas aeruginosa PAE853; test: FaAST with DAA-Cy5-2 probe; assay type: cell-based; settings: unit assumed
Method: as §5
(§6) The specific steps are the same as in Example 5. […] The minimum inhibitory concentration of antibiotics was obtained according to the fluorescence signal intensity of flow detection, and the statistical results are shown in Table 7.

[11] = test system: Acinetobacter baumannii ABA16; test: FaAST with DAA-Cy5-2 probe; assay type: cell-based; settings: unit assumed
Method: as §5, §6

K. pneumoniae Kp6 = test: BMD susceptibility test; assay type: cell-based, Klebsiella pneumoniae; settings: unit assumed

`C[C@H]1COc2c(N3CCN(C)CC3)c(F)cc3c(=O)c(C(=O)O)cn1c23` [Levofloxacin, levofloxacin] was tested, and the MIC, VITEK [1] was 0.5 µg/mL (≈ 1.38 µM), the BMD (MIC) [2] was 0.25 µg/mL and the BMD (MIC) [3] was 1 µg/mL. For the same compound, the FaAST (MIC) (Ec ATCC 25922) was ≤ 0.25 µg/mL, the FaAST (MIC) (E. coli Ec11) was 0.5 µg/mL and the MIC, VITEK [4] was 0.5 µg/mL (≈ 1.38 µM). The FaAST (MIC) (E. faecium Ef26) was 64 µg/mL, the MIC, Vitek 2 (E.coli 1113) was > 8 µg/mL and the Sensibility (E.coli 1113) was “R”. The FaAST (MIC) (P. aeruginosa Pa2) was 0.5 µg/mL, the FaAST (MIC) (Pa ATCC 27853) was 0.5 µg/mL and the FaAST (MIC) (P. aeruginosa Pa3) was 0.5 µg/mL. The MIC, FaAST [5] was 64 µg/mL (≈ 177 µM), the MIC, FaAST [6] was 0.5 µg/mL (≈ 1.38 µM) and the MIC, FaAST [7] was 0.5 µg/mL (≈ 1.38 µM). For the same compound, the FaAST (MIC) [8] was 0.25 µg/mL, the FaAST (MIC) [9] was 0.25 µg/mL and the MIC, FaAST [10] was 0.5 µg/mL (≈ 1.38 µM). For the same compound, the MIC, FaAST [11] was 32 µg/mL (≈ 88.6 µM) and the BMD (MIC) (K. pneumoniae Kp6) was ≤ 0.25 µg/mL.
